Test results published in PMC11475281, “A Novel Liver Cancer-Selective Histone Deacetylase Inhibitor Is Effective against Hepatocellular Carcinoma and Induces Durable Responses with Immunotherapy” (ACS Pharmacology & Translational Science, 2024).
Read-outs that look alike come from different tables or passages of the source.

What was measured:
Hep-G2 cells = experiment: GLUT-2 uptake experiment (phloretin blockade, MTS); format: cell-based; conditions: Homo sapiens, read-out: Hep-G2 Cell Viability %; for viability at 6.25 µM: HepG2, 6.25 μM; for viability at 12.5 µM: HepG2, 12.5 μM; for viability at 1.25 µM: HepG2, 1.25 μM; for viability at 2.5 µM: HepG2, 2.5 μM
Protocol: We observed that Ph selectively mitigated the cytotoxicity of STR-V-53 against the Hep-G2 cell line with no apparent effect on the cytotoxicity of SAHA (Figure 2a). […] This matches our expectation because Hep-G2 cells overexpress GLUT-2 while VERO has limited expression of GLUT-2.[26]
MIDI 4-20% gel (Biorad, cat. 5671093) and ran at 150 V for 70 min. The gel was then transferred onto the Turbo PDVF membrane (Biorad, 1704273), and after blocking with 5% BSA for 1-2 h, the membrane was incubated overnight with primary antibodies Ac-Tubulin (sc-23950), Ac-H4 (sc-515319) (Santa Cruz Biotechnology), caspase 3 and clv-Caspase 3 (Cell signaling Technology), anti-p21WAF/CIP (ThermoFisher), anti-GAPDH (Aldrich-Sigma). On the second day, the membrane was washed with TBST for 3x5 min; a secondary antibody (LiCOR) was added, and the membrane was incubated with agitation for 1 h. After washing with TBS-T 3x5 mins, bands were quantified using the Odyssey CLx Image system.
Hep-G2 or VERO cells were seeded (2500 to 4,000 counts/well) into 96-well plates, in which each well contains 100 µL media. The cells were cultured overnight in the respective media described in the cell culture section above. On day 2, the cells were treated with 25 µM Phloretin for 24 h. On day 3, 200x stock solutions of STR-V-53 and SAHA were used to prepare 2x treatment solution by adding 1% stock solution in the media. Then, without removal of the media in 96-well plates, the same volumes of drug as the media were added directly to the wells with gentle pipetting to reach 1x drug solution with 25 µM Ph. After another 72 h, the media were removed, and new media (100 µL) added to the wells. MTS solution (20 µL) was added to each well. After 2.5-4 h incubation, the plates were read using a multiplate reader at 490 nm. The data were processed using GraphPad Prism 8.
Hep-G2 cells (5*106) were seeded in a 10 cm plate with MEM and incubated until 50% confluency before drug treatment. Cells were treated, with DMSO (control) and DMSO solutions of SAHA (5 µM) and STR-V-53 (15 µM) such that the final DMSO level was 0.1%,

Hep-G2 HCC cells = experiment: Cell cycle analysis by flow cytometry; format: cell-based, human; conditions: 48 h
Protocol: To determine if the HCC cell selective cytotoxicity of STR-V-53 results from its perturbation of the cell cycle pattern, we evaluated the effect of STR-V-53 on the cycle progression by flow cytometry using SAHA as a control (Figure 4).
Figure 4 Effect of STR-V-53 treatment on HCC cell cycle progression. (a–c) Human Hep-G2 HCC cells were cultured until 80% confluence in a 10 cm Petri dish. The cells were serum-starved overnight before drug treatment. Then, the cells were treated with 10 mL of 0.1% DMSO medium and 0.1% DMSO solution of SAHA (5 μM) or STR-V-53 (15 μM) for 48 h. Control group (ai); SAHA (5 μM)-treated group (aii), and STR-V-53 (15 μM)-treated group (aiii and biii). (c) Quantification of the cell cycle data from two independent experiments. Bars show mean plus standard deviation; *P < 0.0332; **P < 0.0021; ***P < 0.0002; ****P < 0.00001.
MIDI 4-20% gel (Biorad, cat. 5671093) and ran at 150 V for 70 min. […] After washing with TBS-T 3x5 mins, bands were quantified using the Odyssey CLx Image system.
Hep-G2 or VERO cells were seeded (2500 to 4,000 counts/well) into 96-well plates, in which each well contains 100 µL media. […] After 2.5-4 h incubation, the plates were read using a multiplate reader at 490 nm. […]
Then cells were treated with another 500 µL of 100 ug/mL PI staining at room temperature for 30 min. The cell cycle was analyzed with BD FACS Aria Illu analyzer, and the data were […]

Hep-G2 (HCC) = experiment: MTS cell viability assay, 72 h; format: cell-based, human; conditions: Table S2; read-out: Anti-proliferation IC50 Hep-G2
From the text: We then screened STR-V-53 and all the synthesized glycosylated HDACi for their effects on the viability of three cell lines: A549 (lung adenocarcinoma), Hep-G2 (HCC), and VERO (a normal kidney epithelial cell). We used SORA and STR-V-48, a previously disclosed nonglycosylated compound, as controls.[25] […] Additionally, compound STR-V-167, the peracetylated analog of STR-V-53, largely retained the Hep-G2 selectivity of STR-V-53 (Table S2). Subsequently, we evaluated the effects of STR-V-53 on cell proliferation using a panel of human HCC cell lines (Huh-7, SK-Hep-1, and Hep3B) as well as Kupffer cells (liver resident macrophages) by MTS assay. We observed that STR-V-53 is 7- to 16-fold more cytotoxic against these HCC cell lines relative to the Kupffer cells (Figure 1g). […] Based on their weak HDAC and cell proliferation inhibition activities, we de-emphasized further evaluation of the class III compounds.
10-017-CV), supplemented with 10% fetal bovine serum (FBS) (Corning, 35-010-CV). Hep-G2 cells were cultured in phenol red-free Minimum Essential Medium (MEM) (Corning, 17-305-CV), supplemented with 10% fetal bovine serum (FBS). SK-Hep-1 in ATCC-formulated EMEM (ATCC® 30–2003™); Huh-7 in DMEM (containing 4 mM L-glutamine and 1 g/L glucose) with […]
Kupffer Cell Media (Sekisui XenoTech, LLC, Cat. #K8700). Cells were seeded into a 96-well plate (2000 counts/100uL) for 24 h prior to treatment and then treated with various drug concentrations for 72 h. All drugs were dissolved in media with DMSO concentration maintained at 1%. The effect of compounds on cell viability was measured using the MTS assay (CellTiter 96 Aqueous One Solution and CellTiter 96 Non-Radioactive Cell Proliferation Assays, Promega, Madison, WI) as described by the manufacturer. IC50s were determined using Prism GraphPad 8. […]

SMILES: O=C(CCCCCCn1cc(-c2ccc(O[C@H]3O[C@H](CO)[C@@H](O)[C@H](O)[C@H]3O)cc2)nn1)NO [STR-V-53]
- viability at 6.25 µM (Hep-G2 cells; No addition of Ph): 104%
- viability at 6.25 µM (Hep-G2 cells; Pre-treated with 25 μM Ph): 103%
- viability at 12.5 µM (Hep-G2 cells; No addition of Ph): 25.4%
- viability at 12.5 µM (Hep-G2 cells; Pre-treated with 25 μM Ph): 70.3%
- Cell cycle progression (Hep-G2 HCC cells; 15 μM): significant S phase arrest

SMILES: O=C(CCCCCCC(=O)Nc1ccccc1)NO [SAHA, vorinostat, reference compound]
- viability at 1.25 µM (Hep-G2 cells; No addition of Ph): 96.2%
- viability at 1.25 µM (Hep-G2 cells; Pre-treated with 25 μM Ph): 84%
- viability at 2.5 µM (Hep-G2 cells; No addition of Ph): 31.2%
- viability at 2.5 µM (Hep-G2 cells; Pre-treated with 25 μM Ph): 41.8%
- Cell cycle progression (Hep-G2 HCC cells; 5 μM): significant S phase arrest

SMILES: O=C(CCCCCCn1cc(-c2ccc(O[C@@H]3O[C@H](CO)[C@@H](O)[C@H](O)[C@H]3O)cc2)nn1)NO [STR-I-195]
- IC50 (Hep-G2 (HCC)): 22.3 ± 2 µM

SMILES: O=C(CCCCCCn1cc(-c2ccc3cc(O[C@H]4O[C@H](CO)[C@@H](O)[C@H](O)[C@H]4O)ccc3c2)nn1)NO [STR-V-114]
- IC50 (Hep-G2 (HCC)): 6.7 ± 1.6 µM
